Holding throughout (experiment): NCI-60 cell line screen, 48 h
Experiment [1] concerns M14 melanoma.
Experiment [2] relates to T-47D breast.
In experiment [3] the test system is SF-539 CNS.
For experiment [4], the system named is SF-295 CNS.
Experiment [5] has as its system MALME-3M melanoma.
For experiment [6], the system named is RPMI-8226 leukemia.
Experiment [7] concerns HT29 colon.
The test system of experiment [8] is MDA-MB-231 breast.
Experiment [9] deals with OVCAR-3 ovarian.
Experiment [10] relates to NCI-H226 lung.

SMILES strings stand for the structures. “And” between values parts separate entries of the source, which are not always exact repeats. Equal values may be shown once.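 Where inhibition never reached the appropriate level, the endpoint shown equals the highest concentration tested. Otherwise, values were interpolated linearly from a five-concentration, 48-hour dose response in 96-well plates. GI50 is the concentration that inhibits growth by half. TGI: concentration producing complete growth inhibition.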

Regarding `CSC(=NCCCN=C(NS(=O)(=O)c1ccc(Cl)cc1)SC)NS(=O)(=O)c1ccc(Cl)cc1`, the TGI in [1] was more than 100 µM; in experiment [2], more than 100 µM; in experiment [3], more than 100 µM; in experiment [4], more than 100 µM; in [5], 72.7 µM; in experiment [6], more than 100 µM. For the same molecule, the TGI is more than 100 µM in experiment [7], more than 100 µM in experiment [8] and 80 µM in experiment [9].

`CCN(CC)CCCNc1nnc(C)c2[nH]c3ccccc3c12`: the TGI is 32.4 µM in experiment [1]; 68.9 µM in experiment [2]; 5.86 µM in experiment [3]; 62.5 µM in [4]; 29.3 µM in experiment [5]; more than 100 µM in experiment [6]. Also, the TGI was determined as 56.1 µM in [7], 39.5 µM in [8] and 37.7 µM in [9].

In the case of `Nn1c(=S)[nH]nc(/C=C/c2c(O)ccc3ccccc23)c1=O`, the TGI is 41.6 µM in experiment [1]; 31.9 µM in [2]; more than 100 µM in experiment [3]; 96.1 µM in experiment [4]; 44.6 µM in [5]; more than 100 µM in [6]. In addition, the TGI in experiment [7] was found to be 21.9 µM; in [9], 22.1 µM.

For `N/N=C(\N)SCc1ccc(N=C=S)cc1`, the TGI in experiment [2], in [3], in [4], in experiment [5], in [6] and in experiment [7] was more than 100 µM in each case. The TGI in [8] was more than 100 µM.

Consider `COc1cc(O)c2c(=O)c(O)c(-c3ccc(O)c(O)c3)oc2c1`, for which the TGI in experiment [1] is 42.6 µM; in [2], more than 100 µM; in [4] it was 72.3 µM; in [5] it was 69.3 µM; in experiment [6], more than 100 µM; in [7] it was 48.4 µM. Moreover, the TGI was 95.8 µM in experiment [8] and 21.8 µM in [9].

Take `CCc1nc2cc(F)ccc2[nH]c1=O`: the TGI in experiment [1], in experiment [3], in experiment [4], in experiment [10], in [5] and in experiment [6] was more than 100 µM each time. The TGI in experiment [7], in [8] and in experiment [9] was more than 100 µM each time.

For `CCCCC(C)(C/C=C/[C@@H]1[C@@H](C(O)CCCCCC(=O)OC)C(=O)C[C@H]1O[Si](C)(C)C(C)(C)C)O[Si](C)(C)C` (stereo not given in full), the TGI in experiment [1], in experiment [3], in experiment [4], in [10], in experiment [5] and in experiment [6] was more than 100 µM each time. Further, the TGI in experiment [7], in experiment [8] and in experiment [9] was more than 100 µM throughout.

Take `COC1=C(C)C(=O)C2=C(C1=O)C1C3CC4=C(C(=O)C(OC)=C(C)C4=O)C(CNC(=O)C(C)=O)N3C(C#N)C(C2)N1C` (stereo not given): the GI50 in experiment [2] was 0.000553 µM; in [4], 0.000966 µM. Further, the TGI in experiment [2] is 0.00608 µM; in [4], 0.253 µM and 0.383 µM; in experiment [8] it was 0.0127 µM and 0.0154 µM; in [9] it was 0.00533 µM and 0.0414 µM and < 0.0468 µM.

As for `CC(=O)Oc1c(OC(C)C)cc(=O)n2ccsc12`, the TGI in experiment [1], in [3], in [4], in experiment [10], in experiment [5] and in experiment [6] was more than 100 µM each time. The TGI in experiment [7], in experiment [8] and in [9] was more than 100 µM throughout.

Consider `CC(C)=C[C@@H]1C[C@H](C)[C@H]2CC[C@H](C)[C@H]3C(=O)C(O)=C(C)C(=O)[C@]123`, for which the TGI in [1], in experiment [3], in experiment [4], in experiment [10], in [5] and in experiment [6] was more than 100 µM in each case. For the same molecule, the TGI in experiment [7], in [8] and in experiment [9] was more than 100 µM each time.

On to `COc1ccc(-c2cc(-c3ccc(Nc4ccnc5cc(C(F)(F)F)ccc45)cc3)nc(N)c2C#N)c2ccccc12`, for which the TGI in experiment [1], in experiment [2], in [3], in experiment [4], in experiment [5] and in experiment [6] was more than 100 µM in each case. Moreover, the TGI in [8] and in experiment [9] was more than 100 µM throughout.

`Nc1nc2c(c(-c3ccc(F)cc3)n1)COC/C2=C\c1ccc(F)cc1`: the TGI in [1] is more than 100 µM; in [3] it was more than 100 µM; in experiment [4], more than 100 µM; in experiment [10] it was more than 100 µM; in [5], 35.1 µM; in experiment [6], more than 100 µM. Moreover, the values for the TGI in experiment [7], in [8] and in experiment [9] were 29.3 µM, more than 100 µM and more than 100 µM, respectively.

The values are drawn from PubChem BioAssay (NCI).
